Source: patent US20090311237A1, “Combination therapy using a soluble hyaluronidase and a bisphosphonate” (priority 2008, published 2009)
Where two headings read alike, the source gives them in different places.

Test: Pharmacokinetics of ZA in pig serum after IV or SC infusion with or without rHuPH20 (LC-MS-MS, non-compartmental analysis)
Type: in vivo
Conditions: female, Yorkshire, pig, serum, […], pig; for bioavailability / Tmax / half-life / Vd/F: sc, SC ZA […], no rHuPH20 (Study Group 2), n=4; for concentration at 0.05 h / concentration at 5 min / concentration at 0.333 h / concentration at 0.5 h / concentration at 1 h: subcutaneous, Study Group 2, SC, ZA […], rHuPH20 0 U/mL, read-out: Zoledronic Acid Serum Concentration
Description: A pharmacokinetic study of zoledronic acid (ZA) co-administered with rHuPH20 in female Yorkshire swines was conducted. The primary objective of the study was to determine the bioavailability of zoledronic acid dosed via subcutaneous (SC) co-administration with human recombinant hyaluronidase PH20 (rHuPH20) and to compare the overall exposure to an equivalent IV dose.
Animals in Study Group 1 were dosed with 0.15 mg/kg ZA given via a 20-minute IV infusion. Animals in Study Groups 2 and 3 were dosed subcutaneously (SC) with 0.15 mg/kg ZA without and with rHuPH20, respectively, in different SC delivery volumes.
Following ZA dose administration, serial blood samples were collected via vascular access ports (VAPs) for serum preparation and determination of ZA concentrations. Blood collection times were at 1, 3, 5, 10, 15, 20, 30, 45, and 60 minutes, and at 1.5, 2, 3, 4, 6, 8, 10, 24, 48, and 72 hours post dose. Urine samples were also collected to compare excretion characteristics between IV and SC routes of administration. Collection times for urine were at 15 minutes before dosing (−15 min.), continuously from dose initiation to 2 hours post dose, and at 4, 6, 8, and 24 hours post dose thereafter.
Serum concentration of ZA was determined using a qualified LC-MS-MS assay after derivatization with diazomethane (Zhu, L S et al. (2006) Rapid Commun. Mass Spectrom. 20: 3421-3426; “Qualification Data of An LC-MS/MS Method for the Determination of Zoledronate in Porcine Serum”, MDS Pharma Services Study No. AA43671-01, Report Date 14 Sep. 2007). The assay range was from 2.0 to 400 ng/mL with a lower limit of quantitation (LLOQ) at 2.0 ng/mL. Urine concentration of ZA was determined by a similar well qualified LC-MS-MS method (“Qualification Data of An LC-MS/MS Method for the Determination of Zoledronate in Porcine Urine”, MDS Pharma Services Study No. AA43671-02, Report Date 14 Sep. 2007) with an assay LLOQ at 10 ng/mL.
Pharmacokinetic (PK) analyses of ZA serum concentration versus time data were conducted using WinNonlin v5.1 (Pharsight, Mountain View, Calif.). Non-compartmental analysis was used for derivation of primary and secondary pharmacokinetic (PK) parameters. AUC, Cmax, and Tmax were compared between dose routes, between co-administration with rHuPH20, and with dose of rHuPH20.

SMILES: O=P(O)(O)C(O)(Cn1ccnc1)P(=O)(O)O [ZA, 1-hydroxy-2-(1H-imidazol-1-yl)ethylidene-1,1-bisphosphonic acid]
- bioavailability (read-out: SC Bioavailability (0-8 h), mean): 87.7 ± 15%
- bioavailability (read-out: SC Bioavailability (0-8 h), median): 86.9%
- Tmax (read-out: Tmax, mean): 12.6 min
- Tmax (read-out: Tmax, median): 10.2 min
- half-life (read-out: T½ λz, mean (converted)): 64.2 ± 14.4 min
- half-life (read-out: T½ λz, median (converted)): 59.4 min
- Vd/F (read-out: Vss/F, mean): 0.607 L/kg
- Vd/F (read-out: Vss/F, median): 0.625 L/kg
- Vd/F (read-out: Vz/F, mean): 0.784 L/kg
- Vd/F (read-out: Vz/F, median): 0.832 L/kg
- concentration at 0.05 h (pig ID 59, 100 mL, 16 min): 13.9 ng/mL
- concentration at 0.05 h (pig ID 60, 100 mL, 16 min): 51.5 ng/mL
- concentration at 0.05 h (pig ID 62, 50 mL, 8 min): 97.6 ng/mL
- concentration at 0.05 h (pig ID 69, 25 mL, 4 min): 144 ng/mL
- concentration at 0.05 h (pig ID 70, 10 mL, 1.6 min): 174 ng/mL
- concentration at 5 min (pig ID 59, 100 mL, 16 min): 32.4 ng/mL
- concentration at 5 min (pig ID 60, 100 mL, 16 min): 85 ng/mL
- concentration at 0.333 h (pig ID 59, 100 mL, 16 min): 130 ng/mL
- concentration at 0.333 h (pig ID 60, 100 mL, 16 min): 255 ng/mL
- concentration at 0.333 h (pig ID 62, 50 mL, 8 min): 208 ng/mL
- concentration at 0.333 h (pig ID 69, 25 mL, 4 min): 210 ng/mL
- concentration at 0.333 h (pig ID 70, 10 mL, 1.6 min): 233 ng/mL
- concentration at 0.5 h (pig ID 59, 100 mL, 16 min): 120 ng/mL
- concentration at 0.5 h (pig ID 60, 100 mL, 16 min): 211 ng/mL
- concentration at 0.5 h (pig ID 62, 50 mL, 8 min): 149 ng/mL
- concentration at 0.5 h (pig ID 69, 25 mL, 4 min): 115 ng/mL
- concentration at 0.5 h (pig ID 70, 10 mL, 1.6 min): 191 ng/mL
- concentration at 1 h (pig ID 59, 100 mL, 16 min): 44.6 ng/mL
- concentration at 1 h (pig ID 60, 100 mL, 16 min): 149 ng/mL
- concentration at 1 h (pig ID 62, 50 mL, 8 min): 81.6 ng/mL
- concentration at 1 h (pig ID 69, 25 mL, 4 min): 74.6 ng/mL
